Measured values as given in ChEMBL document CHEMBL6087397, “H2S-releasing oridonin derivatives with improved antitumor activity by inhibiting the PI3K/AKT pathway” (Bioorg Med Chem, 2024).
The source made the active and inactive calls. The rule behind the calls is not given here.

Tests used:
MIA PaCa-2 [1] = assay: Induction of cell cycle arrest in human MIA PaCa-2 cells assessed as increase in accumulation of cells at S phase at 2.5 uM incubated for 48 hrs by PI staining based flow cytometric analysis (reference value: 9.38%); type: functional
4T1 [2] = assay: Antitumor activity against mouse 4T1 cells xenografted in female BALB/c mouse assessed as tumor inhibition rate at 10 mg/kg, ip administered every 2 days relative to control; type: functional; conditions: 4T1, 48 h, read-out: TGI
MIA PaCa-2 [3] = assay: Induction of apoptosis in human MIA PaCa-2 cells assessed as increase in Bax/Bcl-2 ratio at 1.25 to 5.0 uM incubated for 48 hrs by Western blotting analysis; type: functional, cell-based; conditions: dose 1.25-5 µM
4T1 [4] = assay: Antitumor activity against mouse 4T1 cells xenografted in female BALB/c mouse assessed as reduction in tumor volume at 10 mg/kg, ip administered every 2 days; type: functional, organism-based
HepG2 = assay: Antiproliferative activity against human HepG2 cells assessed as inhibition of cell proliferation incubated for 48 hrs by CCK-8 assay; type: functional, cell-based; conditions: HepG2, 48 h
[5] = Toxicity in female BALB/c mouse xenografted with mouse 4T1 cells assessed as morphological change in liver at 10 mg/kg, ip administered every 2 days by H and E staining based analysis; type: organism-based; conditions: in vivo, 48 h
MCF7 [6] = assay: Induction of mitochondrial apoptosis pathway in human MCF7 cells assessed as downregulation of pro-caspase-3 expression at 1.25 to 5.0 uM incubated for 48 hrs by Western blotting analysis; type: functional, cell-based; conditions: dose 1.25-5 µM
MIA PaCa-2 [7] = assay: Induction of cell cycle arrest in human MIA PaCa-2 cells assessed as increase in accumulation of cells at S phase at 5.0 uM incubated for 48 hrs by PI staining based flow cytometric analysis (reference value: 9.38%); type: functional
A549 = assay: Antiproliferative activity against human A549 cells assessed as inhibition of cell proliferation incubated for 48 hrs by CCK-8 assay; type: functional, cell-based; conditions: A549, 48 h
MCF7 [8] = assay: Induction of apoptosis in human MCF7 cells assessed as increase in cleaved PARP level at 1.25 to 5.0 uM incubated for 48 hrs by Western blotting analysis; type: functional, cell-based; conditions: dose 1.25-5 µM
MCF7 [9] = assay: Induction of apoptosis in human MCF7 cells assessed as increase in Cyt-C level at 1.25 to 5.0 uM incubated for 48 hrs by Western blotting analysis; type: functional, cell-based; conditions: dose 1.25-5 µM
MIA PaCa-2 [10] = assay: Induction of apoptosis in human MIA PaCa-2 cells assessed as early apoptotic cells at 10 uM incubated for 48 hrs by Annexin V-FITC/PI staining based flow cytometric analysis (reference value: 7.3%); type: functional
MIA PaCa-2 [11] = assay: Induction of apoptosis in human MIA PaCa-2 cells assessed as upregulation of cleaved caspase-3 expression at 1.25 to 5.0 uM incubated for 48 hrs by Western blotting analysis; type: functional, cell-based; conditions: dose 1.25-5 µM

**Q.** Which results are given for `C=C1C(=O)[C@]23[C@H](OC(=O)c4ccc(N=C=S)cc4)[C@H]1CC[C@H]2[C@@]12CO[C@]3(O)[C@@H](O)[C@@H]1C(C)(C)CC[C@@H]2O`?
**A.** Activity (MIA PaCa-2 [1]): 36%; inhibition in vivo at 10 mg/kg (4T1 [2]): 34.3%; Activity (MIA PaCa-2 [3]): Active; Activity (4T1 [4]): Active; IC50 (HepG2): 7.48 µM; Activity [5]: Non-toxic; Activity (MCF7 [6]): Active; Activity (MIA PaCa-2 [7]): 46.9%; IC50 (A549): 17.8 µM; Activity (MCF7 [8]): Active; Activity (MCF7 [9]): Active; Activity (MIA PaCa-2 [10]): 56.8%; Activity (MIA PaCa-2 [11]): Active
